Measured values as given in patent publication US20010044151A1, “Ligands for modulating the expression of exogenous genes via an ecdysone receptor complex” (priority 1998, published 2001).

Biological target: T1, VgEcR and RXR heterodimeric receptor (pVgRXR) with pIND/luc in CHO cells (Drosophila melanogaster, UniProt P34021, E282G/G283S/G286V)
T1 construct: host or cells: CHO cells (ATCC CCL-61), transiently transfected or stably transformed with pVgRXR
T1 sequence (P34021 1-878 E282G/G283S/G286V): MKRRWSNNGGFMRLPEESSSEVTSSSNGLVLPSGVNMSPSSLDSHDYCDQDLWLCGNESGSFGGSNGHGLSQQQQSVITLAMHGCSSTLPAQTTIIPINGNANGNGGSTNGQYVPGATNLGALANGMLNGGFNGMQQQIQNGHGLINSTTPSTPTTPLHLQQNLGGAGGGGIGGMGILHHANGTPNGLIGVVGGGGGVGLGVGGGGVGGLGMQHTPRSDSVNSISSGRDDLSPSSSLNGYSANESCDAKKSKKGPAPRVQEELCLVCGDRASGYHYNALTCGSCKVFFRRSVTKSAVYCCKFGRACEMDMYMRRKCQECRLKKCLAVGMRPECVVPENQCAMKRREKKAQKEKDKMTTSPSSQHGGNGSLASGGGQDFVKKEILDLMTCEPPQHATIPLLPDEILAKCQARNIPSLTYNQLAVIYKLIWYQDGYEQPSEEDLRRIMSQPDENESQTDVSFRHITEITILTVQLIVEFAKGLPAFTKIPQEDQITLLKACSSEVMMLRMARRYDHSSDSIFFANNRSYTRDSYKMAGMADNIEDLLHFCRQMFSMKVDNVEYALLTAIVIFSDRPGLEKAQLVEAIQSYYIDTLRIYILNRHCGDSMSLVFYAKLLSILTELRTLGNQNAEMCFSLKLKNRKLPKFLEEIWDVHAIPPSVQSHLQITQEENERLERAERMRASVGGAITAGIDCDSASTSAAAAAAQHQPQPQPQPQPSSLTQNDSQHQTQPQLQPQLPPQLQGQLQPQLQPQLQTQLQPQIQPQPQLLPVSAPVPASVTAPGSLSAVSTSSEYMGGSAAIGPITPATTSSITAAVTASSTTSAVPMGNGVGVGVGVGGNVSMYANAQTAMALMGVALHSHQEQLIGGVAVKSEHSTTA
T1 sequence (P19793 1-462 partner): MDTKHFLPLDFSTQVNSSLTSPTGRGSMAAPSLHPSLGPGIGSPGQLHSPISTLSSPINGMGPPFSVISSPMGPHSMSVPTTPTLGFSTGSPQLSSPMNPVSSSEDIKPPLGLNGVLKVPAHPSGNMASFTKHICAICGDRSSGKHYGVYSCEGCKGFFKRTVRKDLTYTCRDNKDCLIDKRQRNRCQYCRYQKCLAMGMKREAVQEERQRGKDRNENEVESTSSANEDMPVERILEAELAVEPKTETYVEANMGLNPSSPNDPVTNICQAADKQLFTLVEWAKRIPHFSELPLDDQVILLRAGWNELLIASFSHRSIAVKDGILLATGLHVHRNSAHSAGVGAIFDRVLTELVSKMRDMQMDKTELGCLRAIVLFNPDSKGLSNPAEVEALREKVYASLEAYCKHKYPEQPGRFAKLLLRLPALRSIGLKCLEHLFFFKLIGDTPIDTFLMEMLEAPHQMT
Experiment: Luciferase gene activation in transiently transfected CHO cells
Format: cell-based
Settings: ligand 10 μM; for Luciferase activity: average of duplicate samples, no ligand = 42; for Induction Ratio (RLU in presence and absence of the ligand): luciferase
Excerpt: pVgRXR (Invitrogen Corp., Carlsbad, Calif.) is an […] plasmid that expresses both VgEcR and RXR to form a modified heterodimeric nuclear receptor (see No, D., et. al., (1996) Proc. Natl. Acad. Sci. USA, 93, 3346-3351). The ecdysone receptor (VgEcR) is derived from the natural Drosophila ecdysone receptor and modified to contain the VP16 transactivation domain (see Cress, W. D., and Triezenberg, S. J. (1991), Science 251, 87-90; Sadowski, I., et. al (1988) Nature 335, 563-564; Triezenberg, S. J et. al., (1988), Genes Dev 2, 718-729; Triezenberg, S. J., et. al., (1988), Genes Dev 2, 730-742). RXR as the mammalian homologue of USP (ultraspiracle), the natural partner to the Drosophila ecdysone receptor (see Yao, T. -P., et. al., (1993), Nature 366, 476-479, Yao, T. -P., et. al., (1992), Cell 71, 63-72). The P-box region of the VgEcR DNA binding domain was modified to recognize the hybrid ecdysone response element that consists of one half-site from the gluccorticoid response element (see Umesono, K., and Evans, R. M. (1989), Cell 57, 1139-1146) and one half-site from the natural ecdysone response element. This hybrid response element reduces any possible interaction with the farsenoid X receptor that may bind the natural ecdysone responsive element (EcRE). The cytomegalovirus enhancer-promoter drives expression of VgEcR, and the Rous sarcoma virus promoter drives expression of RXR. The vector pIND (Invitrogen Corp) is a 5024 bp vector based on pcDNA3.1. It contains five hybrid E/GREs recognized by the modified ecdysone receptor expressed from pVgRXR and a minimal heat shock promoter (see Yao, T. P., et. al., (1993), Nature, 366, 476-479). pIND/lacZ (Invitrogen Crop.) is a 8170 bp plasmid that contains the β-galactosidase gene as a reporter enzyme. Cotransfection of pIND/lacZ and pVgRXR results in the induction of β-galactosidase expression upon addition of ecdysone agonists such as muristerone A. The reporter plasmid pIND/luc was constructed by subcloning the firefly luciferase gene from pGL3 (Promega/E1741) as a Nhe I-BamHI fragment into pIND, also digested with Nhe I and BamHI.
CHO cells (ATCC #CCL-61) were maintained by F-12 Nutrient mixture (Ham's media) (Gibco/BRL, 11765-054) supplemented with 10% fetal bovine serum, (FBS, complete medium; Gibco/BRL, 16000-036). These cells were maintained at 37° C. in 5% CO2 in 95% atmospheric air.
The CHO cells were seeded into 12-well tissue culture plates at a concentration of 0.5×10^5 cells per ml per well. The lipid Pfx-8 (Invitrogen, T930-18) was used to transiently transfect the ecdysone inducible expression system (Invitrogen catalog number K1000-01). The ecdysone inducible expression system consists of pVgRXR, encoding the receptor subunits, and pIND/lacZ or pIND/luc, containing the response element and a reporter gene encoding β-galactosidase or luciferase respectively. Twenty-four hours after seeding cells, the lipid/DNA solution was prepared by 0.5 mg/ml of VgRXR and 0.5 mg/ml pIND/lacZ or pIND/luc DNAs in sterile water. Thirty-six μl of Pfx-8 was diluted in a sterile 17×100 mm polystyrene tube containing 1.5 ml Opti-MEM medium (Gibco/BRL, 31985). Six μl of the plasmid DNA stock was mixed with 1.5 ml of Opti-MEM medium in another polystyrene tube. The DNA and the lipid solutions were combined to make 3 ml of transfection solution (enough for one set of triplicate samples). Cells were washed with phosphate buffered solution (PBS; Gibco/BRL, 14190-144) three times by aspirating medium from the cells. One ml transfection solution was added per well. Cells were incubated for four hours, and the transfection medium replaced with the same volume of complete medium. Cells were incubated for an additional 20 hours.
Stock solutions (10^−2 M) were prepared for muristerone A and the non-steroidal ligands of the present invention in ethanol and acetone respectively, and stored at −20° C. […]

| Structure (SMILES) | Luciferase activity | Induction Ratio (RLU in presence and absence of the ligand) |
| --- | --- | --- |
| CCc1ccc(C(=O)NN(C(=O)c2cc(C)cc(C)c2)C(C)(C)C)cc1 [CE-1, N-(4-ethylbenzoyl)-N′-(3,5-dimethylbenzoyl)-N′-tert-butyl-hydrazine, reference compound] | 89 RLU | 2 |
| CC(C)(C)N(NC(=O)c1ccccc1)C(=O)c1ccccc1 [CE-2, 1,2-dibenzoyl-1-tert-butyl-hydrazine, reference compound] | 36 RLU | 1 |
| CC(C)CC[C@@H](O)[C@](C)(O)[C@H]1CC[C@@]2(O)C3=CC(=O)[C@]4(O)C[C@@H](O)[C@@H](O)C[C@]4(C)[C@H]3[C@H](O)C[C@]12C [CE-3, muristerone A, reference compound] | 316 RLU | 8 |
| CC(C)CC[C@@H](O)[C@](C)(O)[C@H]1CC[C@@]2(O)C3=CC(=O)[C@@H]4C[C@@H](O)[C@@H](O)C[C@]4(C)[C@H]3CC[C@]12C [CE-4, ponasterone A, reference compound] | 418 RLU | 10 |
| CCc1c(OC)cccc1C(=O)NN(C(=O)c1cccc(OC)c1)C(C)(C)C [Ligand 1] | 275 RLU | 7 |
| Cc1cc(C)cc(C(=O)N(NC(=O)c2ccc3c(c2C)OCCO3)C(C)(C)C)c1 [Ligand 2] | 204 RLU | 5 |
| COc1cccc(C(=O)NN(C(=O)c2cc(C)cc(C)c2)C(C)(C)C)c1C [Ligand 3] | 324 RLU | 8 |
| CCc1c(OC)cccc1C(=O)NN(C(=O)c1cc(F)cc(F)c1)C(C)(C)C [Ligand 4] | 251 RLU | 6 |
| CCc1c(OC)cccc1C(=O)NN(C(=O)c1cc(C)cc(C)c1)C(C)(C)C [Ligand 5] | 313 RLU | 8 |
| CCOc1cccc(C(=O)NN(C(=O)c2cc(C)cc(C)c2)C(C)(C)C)c1CC [Ligand 12] | 305 RLU | 7 |
| CCc1c(OC)cccc1C(=O)NN(C(=O)c1cc(Cl)cc(Cl)c1)C(C)(C)C [Ligand 13] | 226 RLU | 5 |
